Experimental data published in PubChem BioAssay (NCI).
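A five-concentration, 48-hour dose response in 96-well plates underlies each endpoint, interpolated linearly between surrounding concentrations. Abbreviation: GI50, concentration required for 50% inhibition of growth. Definition used: TGI = concentration required for complete inhibition of growth.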

Assays:
Experiment in all cases: NCI-60 cell line screen, 48 h
EKVX NSCLC = system: EKVX NSCLC
NCI-H226 lung = system: NCI-H226 lung
LOX IMVI melanoma = system: LOX IMVI melanoma
SK-MEL-5 melanoma = system: SK-MEL-5 melanoma
786-0 renal = system: 786-0 renal
UACC-62 melanoma = system: UACC-62 melanoma
SNB-75 CNS = system: SNB-75 CNS
NCI-H522 lung = system: NCI-H522 lung
HOP-62 NSCLC = system: HOP-62 NSCLC
MCF7 breast = system: MCF7 breast

| SMILES | GI50 (EKVX NSCLC) [µM] | TGI (EKVX NSCLC) [µM] | GI50 (NCI-H226 lung) [µM] | TGI (NCI-H226 lung) [µM] | GI50 (LOX IMVI melanoma) [µM] | TGI (LOX IMVI melanoma) [µM] | GI50 (SK-MEL-5 melanoma) [µM] | TGI (SK-MEL-5 melanoma) [µM] | GI50 (786-0 renal) [µM] | TGI (786-0 renal) [µM] | GI50 (UACC-62 melanoma) [µM] | TGI (UACC-62 melanoma) [µM] | GI50 (SNB-75 CNS) [µM] | TGI (SNB-75 CNS) [µM] | GI50 (NCI-H522 lung) [µM] | TGI (NCI-H522 lung) [µM] | GI50 (HOP-62 NSCLC) [µM] | TGI (HOP-62 NSCLC) [µM] | GI50 (MCF7 breast) [µM] | TGI (MCF7 breast) [µM] |
| --- | --- | --- | --- | --- | --- | --- | --- | --- | --- | --- | --- | --- | --- | --- | --- | --- | --- | --- | --- | --- |
| COc1cc2c(cc1Nc1nc(N3CCc4ccccc43)c3cc[nH]c3n1)N(C(=O)CN(C)C)CC2 | 5.11 | 13.9 | 11.3 | 20.1 | 1.59 | 10.2 | 4.26 | 11 | 3 | 8.99 | 4.71 | 9.08 | 4.88 | 9.97 | 3.94 | 11.7 | 4.62 | 9.46 | 0.48 | 2.09 |
| O=C(/C=C/C12c3ccccc3C(c3ccccc31)C1C(=O)NC(=O)C12)c1ccccn1 (stereo not given) | 1.91 | 4.93 | 2.98 | 11.7 | 1.11 | 2.51 | 1.7 | 3.2 | 1.74 | 4 | 1.62 | 3.1 | 1.67 | 4.34 | 1.52 | 3.37 | 1.75 | 4.15 | 0.562 | 2.43 |
| CCN1C(=S)N(CC)C2C1NC(=S)N2/N=C/C=C/c1ccccc1OC (stereo not given) | 0.4 | > 100 | 0.903 | > 39.3 | 0.488 | 12.7 | 0.137 | 3.53 | 0.67 | > 52.3 | 0.33 | 25.6 | 0.0935 | 0.606 | 0.137 | 1.19 | 0.453 | > 100 | 0.171 | > 100 |
| CCCCCCN(CCCCCC)C(=S)N/N=C(\C)c1ccccn1 |  | 3.01 |  | 2.27 |  | 2.59 |  | 2.57 |  | 2.38 |  | 3.5 |  | 3.68 |  | 2.7 |  | 3.32 |  | 3.16 |
| c1ccc(-c2[nH]ncc2-c2ccnc(-c3ccc(OCCn4ccnc4)cc3)c2)nc1 | > 25 | > 25 | > 18.7 | > 25 | > 25 | > 25 | 8.1 | > 25 | > 25 | > 25 | > 25 | > 25 | > 25 | > 25 | > 25 | > 25 | > 25 | > 25 | > 25 | > 25 |
| Cn1nccc1Nc1nccc(-c2ccn([C@H](CO)c3ccc(Cl)c(F)c3)c(=O)c2)n1 | 22.8 | > 100 | 34.8 | > 100 | 3.72 | 28.1 | 12.5 | 43.3 | 31.4 | > 100 | 0.0922 | > 59.3 | 24.9 | > 100 | 13.1 | > 51.9 | 37.8 | > 100 | 27.4 | > 100 |
